Consider eleven compounds from ChEMBL document CHEMBL1133730 (J Med Chem, 2000).

For experiment [1], the target named is Adenosine receptors; A1 & A3 (Rattus norvegicus) (UniProt P25099+P28647). Briefly: Relative binding affinity for Adenosine A1 and A3 receptors. In kind it is protein assay.
Experiment [2] addresses Adenosine receptor A2a (Rattus norvegicus, UniProt P30543).
Experiment [3] has as its target T1, Adenosine receptor A1 (Homo sapiens) (UniProt P30542).
T1 sequence (whole entry): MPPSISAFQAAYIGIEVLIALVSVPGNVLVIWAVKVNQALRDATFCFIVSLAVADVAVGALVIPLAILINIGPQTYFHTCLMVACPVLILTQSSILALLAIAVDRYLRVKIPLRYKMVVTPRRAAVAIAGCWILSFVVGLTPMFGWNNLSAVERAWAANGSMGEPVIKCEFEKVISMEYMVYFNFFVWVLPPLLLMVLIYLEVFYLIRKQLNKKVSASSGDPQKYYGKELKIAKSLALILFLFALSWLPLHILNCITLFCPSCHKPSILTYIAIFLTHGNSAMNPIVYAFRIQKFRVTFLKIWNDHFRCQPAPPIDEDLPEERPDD
In words: Maximum stimulation against human adenosine A1 receptor.

The target of experiment [4] is T2, Adenosine receptor A1 (Rattus norvegicus, UniProt P25099).
T2 sequence (P25099 whole entry): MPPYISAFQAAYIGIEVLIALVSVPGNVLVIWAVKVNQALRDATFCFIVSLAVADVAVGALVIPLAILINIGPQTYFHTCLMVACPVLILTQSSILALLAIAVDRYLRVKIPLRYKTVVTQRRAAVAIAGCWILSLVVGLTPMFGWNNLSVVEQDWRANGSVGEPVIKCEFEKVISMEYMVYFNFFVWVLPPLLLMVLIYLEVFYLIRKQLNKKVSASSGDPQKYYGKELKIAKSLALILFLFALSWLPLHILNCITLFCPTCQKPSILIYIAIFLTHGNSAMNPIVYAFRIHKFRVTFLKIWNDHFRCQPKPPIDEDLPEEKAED

The target in experiment [5] is T3, Adenosine receptor A1 (Rattus norvegicus) (UniProt P25099).
T3 sequence (whole entry): T2 sequence (P25099 whole entry)
In words: Maximum stimulation against adenosine A1 receptor of rat cerebral cortical membrane.

Experiment [6] concerns the target T2, Adenosine receptor A1. This is another data set of the same source.
For experiment [7], the target named is T4, Adenosine receptor A3 (Homo sapiens, UniProt P0DMS8).
T4 sequence (P0DMS8 whole entry): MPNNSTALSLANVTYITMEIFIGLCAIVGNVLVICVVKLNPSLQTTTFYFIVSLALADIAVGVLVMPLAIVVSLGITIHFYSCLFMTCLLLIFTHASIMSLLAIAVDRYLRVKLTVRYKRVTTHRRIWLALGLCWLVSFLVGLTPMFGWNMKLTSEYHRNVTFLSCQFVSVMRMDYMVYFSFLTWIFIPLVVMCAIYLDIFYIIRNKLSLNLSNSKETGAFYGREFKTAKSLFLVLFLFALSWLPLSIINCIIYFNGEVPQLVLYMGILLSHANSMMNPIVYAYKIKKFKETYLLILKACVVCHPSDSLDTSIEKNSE
In words: Stimulation of [35S]GTP-gamma-S, against human adenosine A3 receptor. Type of experiment: functional. On the technique in general: GTPγS is a poorly hydrolysed GTP analogue; its binding reports G protein activation.

In experiment [8] the target is T4, Adenosine receptor A3. Briefly: Displacement of [125I]- AB-MECA from human adenosine A3 receptor expressed in HEK cells. In kind it is cell-based, HEK293.
The target in experiment [9] is T5, Adenosine receptor A1 (Homo sapiens, UniProt P30542).
T5 sequence (P30542 whole entry): T1 sequence (whole entry)
Briefly: Stimulation of [35S]GTP-gamma-S, binding to human adenosine A1 receptor. Type of experiment: functional.

Experiment [10] has as its target T6, Adenosine receptor A2b (Homo sapiens, UniProt P29275).
T6 sequence (P29275 whole entry): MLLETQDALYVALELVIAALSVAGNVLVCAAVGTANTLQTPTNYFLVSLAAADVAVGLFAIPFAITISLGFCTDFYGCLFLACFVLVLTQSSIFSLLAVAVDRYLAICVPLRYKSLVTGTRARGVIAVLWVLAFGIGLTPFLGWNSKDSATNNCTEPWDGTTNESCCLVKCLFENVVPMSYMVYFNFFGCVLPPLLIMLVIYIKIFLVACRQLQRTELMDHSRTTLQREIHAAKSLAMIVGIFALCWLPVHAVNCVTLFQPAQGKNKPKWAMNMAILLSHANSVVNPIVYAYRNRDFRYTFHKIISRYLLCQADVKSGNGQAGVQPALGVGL
In words: biochemical.

Experiment [11] deals with T7, Adenosine receptor A3 (Homo sapiens) (UniProt P0DMS8).
T7 sequence (whole entry): T4 sequence (P0DMS8 whole entry)
In words: Maximum stimulation against human adenosine A3 receptor.

In experiment [12] the target is T8, Adenosine receptor A3 (Rattus norvegicus, UniProt P28647).
T8 sequence (P28647 whole entry): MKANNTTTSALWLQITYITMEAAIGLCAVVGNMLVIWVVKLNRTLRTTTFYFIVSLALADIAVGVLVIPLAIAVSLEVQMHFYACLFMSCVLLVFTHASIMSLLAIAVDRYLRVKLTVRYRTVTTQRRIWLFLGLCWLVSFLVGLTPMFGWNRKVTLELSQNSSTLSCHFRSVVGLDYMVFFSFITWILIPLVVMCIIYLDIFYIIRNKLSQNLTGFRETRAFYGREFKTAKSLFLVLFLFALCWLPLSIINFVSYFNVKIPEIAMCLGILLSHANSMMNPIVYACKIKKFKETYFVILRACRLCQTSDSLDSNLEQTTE
In words: Displacement of [125I]- AB-MECA from rat adenosine A3 receptor expressed in CHO cells. In kind it is cell-based.

Experiment [13] has as its target Adenosine receptor A2a (Homo sapiens, UniProt P29274). In words: Displacement of [3H]ZM241385 from human adenosine A2A receptor expressed in HEK cells. Background: Displacement assays read how much labelled ligand stays bound in the presence of the test substance.
The target of experiment [14] is T4, Adenosine receptor A3. In words: Displacement of [125I]- AB-MECA from human adenosine A3 receptor expressed in HEK cell in the absence of ADA. In kind it is cell-based, HEK293.
The target in experiment [15] is T9, Adenosine receptor A2b (Homo sapiens) (UniProt P29275).
T9 sequence (whole entry): T6 sequence (P29275 whole entry)
In words: Displacement of [3H]- ZM-241385 from human adenosine A2B receptor expressed in HEK cell at 50 uM. Type of experiment: cell-based. The conditions noted are these: HEK293.

For experiment [16], the target named is T9, Adenosine receptor A2b (Homo sapiens). In words: Displacement of [3H]ZM241,385 binding to human adenosine A2B receptor expressed in HEK cells at 100 uM. To be noted: HEK293. In kind it is cell-based.
In experiment [17] the target is Adenosine receptor A2a (Rattus norvegicus) (UniProt P30543). Briefly: Displacement of [3H]-CGS- 21680 from adenosine A2A receptor of rat striatal membranes at 100 uM. In kind it is cell membranes. To be noted: Membrane.
Experiment [18] concerns the target T3, Adenosine receptor A1 (Rattus norvegicus). In words: Displacement of [3H]R-PIA from adenosine A1 receptor in rat brain membranes at 100 uM. Type of experiment: cell membranes.

Chain of Adenosine receptor A2a (Rattus norvegicus, UniProt P30543) (P30543 whole entry): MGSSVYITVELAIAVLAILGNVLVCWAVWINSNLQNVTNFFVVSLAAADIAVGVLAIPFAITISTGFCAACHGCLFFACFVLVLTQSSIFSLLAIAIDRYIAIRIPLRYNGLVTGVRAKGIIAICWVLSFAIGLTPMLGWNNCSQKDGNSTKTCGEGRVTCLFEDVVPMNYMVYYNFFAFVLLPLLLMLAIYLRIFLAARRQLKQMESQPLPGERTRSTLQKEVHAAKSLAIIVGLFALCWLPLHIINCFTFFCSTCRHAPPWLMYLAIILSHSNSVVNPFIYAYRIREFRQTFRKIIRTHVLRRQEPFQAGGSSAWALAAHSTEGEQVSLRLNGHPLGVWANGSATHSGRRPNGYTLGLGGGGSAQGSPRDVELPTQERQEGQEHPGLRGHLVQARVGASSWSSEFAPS
Chain of Adenosine receptor A2a (Homo sapiens, UniProt P29274) (P29274 whole entry): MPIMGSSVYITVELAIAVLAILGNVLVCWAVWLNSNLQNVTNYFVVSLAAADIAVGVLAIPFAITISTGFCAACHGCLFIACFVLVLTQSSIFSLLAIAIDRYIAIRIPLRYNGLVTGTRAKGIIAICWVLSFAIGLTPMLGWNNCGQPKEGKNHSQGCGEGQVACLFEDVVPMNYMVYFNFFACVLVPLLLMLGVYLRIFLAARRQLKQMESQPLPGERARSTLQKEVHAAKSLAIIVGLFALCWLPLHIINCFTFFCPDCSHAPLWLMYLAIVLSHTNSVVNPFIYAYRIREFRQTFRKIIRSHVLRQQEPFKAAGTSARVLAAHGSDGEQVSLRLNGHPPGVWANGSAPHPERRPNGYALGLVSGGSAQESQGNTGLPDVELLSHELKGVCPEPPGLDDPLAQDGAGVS
Chain of Adenosine receptor A2a (Rattus norvegicus) (P30543 whole entry): as the sequence (P30543 whole entry) above

`OC[C@@]12C[C@@H]1[C@@H](n1cnc3c(NC4CCCC4)ncnc31)[C@H](O)[C@@H]2O`: the Ratio in experiment [1] was determined as 0.03. For the same compound, the Ki in experiment [2] was 6800 nM; in [4] it was 5.06 nM; in experiment [8], 170 nM; in [10], 139000 nM. Moreover, the Max in experiment [3] turned out to be 102%; in [5], 75%; in experiment [11], 14%. The figures for the EC50 in experiment [6], in experiment [7] and in experiment [9] were 100 nM, > 10000 nM and 21.5 nM, respectively.
Take `OC[C@H]1O[C@@H](n2cnc3c(NCc4cccc(I)c4)ncnc32)[C@H](O)[C@@H]1O`: the Max in experiment [3] is 91%; in [5], 95%; in experiment [11] it was 100%.
`Nc1ncnc2c1ncn2[C@@H]1O[C@H](CO)[C@@H](O)[C@H]1O` [ADENOSINE]: in experiment [12], the Ki came out at 1000 nM. This counts as single-digit micromolar.
With `Nc1ncnc2c1ncn2[C@H]1[C@H](O)[C@H](O)[C@]2(CO)C[C@H]12`, the Ratio in [1] came out at 4.2. Also, the Ki amounted to 22500 nM in experiment [13], 1680 nM in [4] and 404 nM in experiment [14]. For the same compound, in experiment [15], the Displacement was determined as 35%.
As for `OC[C@@]12C[C@@H]1[C@@H](n1cnc3c(NC4CCCC4)nc(Cl)nc31)[C@H](O)[C@@H]2O`, the Ratio in experiment [1] amounted to 0.019. Also, the Ki in experiment [2] amounted to 3390 nM; in [4] it was 8.76 nM; in experiment [8], 466 nM. The Max in experiment [3] amounted to 97%; in [5] it was 96%; in [11], 15%. Also, the Displacement in [16] worked out at 27%. Further, the EC50 in experiment [6] was 145 nM; in experiment [7] it was > 10000 nM; in [9] it was 31.2 nM.
As to `OC[C@@]12C[C@@H]1[C@@H](n1cnc3c(NCc4cccc(I)c4)ncnc31)[C@H](O)[C@@H]2O`, the inhibition constant (Ki) in experiment [2] was determined as 601 nM; in experiment [8], 4.13 nM; in [10], 12100 nM. For the same compound, the Max in [3] came out at 86%; in experiment [11], 45.3%. Moreover, the values for the EC50 in experiment [7] and in experiment [9] were 0.7 nM and 218 nM, respectively.
Consider `OC[C@H]1C[C@@H](n2cnc3c(NCc4cccc(I)c4)ncnc32)[C@H](O)[C@@H]1O`, for which the Ratio in experiment [1] is 13. Moreover, the figures for the Max in [3] and in experiment [11] were 5% and 14%, respectively. For the same compound, the Ki in experiment [4] was found to be 25900 nM; in experiment [8], 1960 nM. For the same compound, the Displacement in [17] is < 10%. For the same compound, the EC50 in experiment [7] and in experiment [9] was > 10000 nM throughout.
With `Nc1ncnc2c1ncn2[C@@]12C[C@H]1[C@H](CO)[C@@H](O)[C@H]2O`, the Ratio in experiment [1] was > 1. Besides, the Ki in [13] was > 100000 nM; in [14] it was 62500 nM. Besides, the figures for the Displacement in experiment [18] and in experiment [15] were 15% and 20%, respectively.
Take `OC[C@H]1O[C@@H](n2cnc3c(NC4CCCC4)ncnc32)[C@H](O)[C@@H]1O` [N6-CYCLOPENTYLADENOSINE]: affinity in [2] was put at a Ki of 857 nM. Further, the Max in experiment [3] and in experiment [11] was 100% throughout.
`CCNC(=O)[C@H]1O[C@@H](n2cnc3c(N)ncnc32)[C@H](O)[C@@H]1O` came in with a Max in experiment [11] of 100%.
For `OC[C@@]12C[C@@H]1[C@@H](n1cnc3c(NCc4cccc(I)c4)nc(Cl)nc31)[C@H](O)[C@@H]2O`, the Ratio in experiment [1] came to 63. For the same compound, the Ki in experiment [2] worked out at 732 nM; in [4], 141 nM; in [10], 41000 nM. The Max in [3] was found to be 91%; in [5], 48%; in experiment [11] it was 22%. Moreover, the EC50 in experiment [6] is 684 nM; in experiment [7] it was 0.67 nM; in experiment [9], 142 nM.

As usually defined, the Ki is a measure of affinity in units of concentration, obtained from inhibition or displacement. A lower Ki goes with tighter binding. As a reminder, the EC50 is the concentration at which the effect is half-maximal. The low end stands for higher potency in that assay, the high end for lower potency in that assay.
